The values below are quoted from earlier work in publication PMC7362765 (Accounts of chemical research, 2019).

In the data set the test system is DF3. Description: oxidation to quinone […], saturation kinetics. Particulars: diiron form, ambient O2; recounted from the authors' own ref 19. The data set is classed as biochemical, synthetic construct.

By Km is commonly meant the concentration of substrate that gives half-maximal velocity. In the case of `CC(C)(C)c1cc(O)c(O)c(C(C)(C)C)c1` [compound 6, 3,5-di-tert-butylcatechol], the Km was 2100 µM.
